We go through one substance from patent publication US20200341014A1, “PD Marker of Hepatocyte Growth Factor (HGF)” (EISAI R&D MANAGEMENT CO., LTD., priority 2016, published 2020).

One test relates to Jo2 liver failure model. Description: Severity of hepatopathy (AST, ALT, PT) in Jo2 liver failure model. The format is in vivo, mouse. The settings on record: Jo2 liver failure mice, rh-HGF into tail vein 1 hour before anti-Fas MAb, 5 hours after MAb; FIG. 4. The protocol:
To BALB/cAnNCrlCrlj male 6 weeks-old mice (CHARLES RIVER JAPAN), 0.23 mg/kg of anti-Fas monoclonal antibody (clone name: Jo2, BD Pharmingen, #554254, lot#3269634) was administered once into the tail vein to create an acute liver failure model. To this model, rh-HGF dissolved in PBS was administered into the tail vein at 0.15, 1.5, or 15 mg/kg 1 hour before administration of anti-Fas monoclonal antibody. For the control group (Control), PBS was administered into the tail vein. Five hours after the administration of anti-Fas monoclonal antibody, mice were retained under anesthesia by 3% isoflurane inhalation, blood was collected from the vein located behind the jaw bone, and Prothrombin time (PT) was measured with CoaguChek XS (Roche-diagnostics, #ES350009) and PT Test strips (Roche-diagnostics, #ES350054). […] The measurement of Aspartate Aminotransferase (AST) and Alanine transaminase (ALT) in the serum was each performed with L-type Wako AST·J2 (Wako) kit and L-type Wako ALT·J2 (Wako) kit and an automatic analysis device (Hitachi 7180 Automatic Analyzer, Hitachi High-Technologies). With the measurement results of PT, AST, ALT, and serum ApoA4 protein, Dunnett's multiple comparison test was carried out between the control and the rh-HGF administration groups (FIG. 4).

In the next test the test system is human ApoA4 mRNA. Put plainly: Real-time PCR of human ApoA4 mRNA in human primary culture hepatocytes treated with rh-HGF. The format is cell-based. The settings on record: human primary culture hepatocytes, rh-HGF 100, 300 or 1000 ng/mL, 24 hours; FIG. 5. The protocol:
(§1) Human primary culture hepatocytes seeded in a 24-well plate (3.8×10^5 cells/well, Biopredic International, #HEP220-MW24) were cultured for three days in Incubation Medium (product name: Biopredic International, #MIL214), then c-Met inhibitor PF-04217903 (final concentration 100 nmol/L) (Selleck Chemicals, #S1094, lot. 05) or vehicle (DMSO) was added, and after 1 hour, rh-HGF (final concentration 100, 300, or 1000 ng/mL) or (Incubation Medium) for the control group (Control) was added.
From hepatocytes 24 hours after addition of rh-HGF, total RNA was purified with RNeasy Mini Kit (QIAGEN, #74104) and RNase-Free DNase set (QIAGEN, #79254), and RNA concentration was measured by absorbance. The purified total RNA was reverse transcripted using High-Capacity cDNA Reverse Transcription Kit with RNase Inhibitor (Applied Biosystems, #4374966) to create cDNA. With the cDNA obtained as the template, the amount of ApoA4 mRNA expressed was examined by real-time PCR method. 18S rRNA was used as the internal control for examination. […]
With the results of ApoA4 mRNA quantification, Dunnett's multiple comparison test was carried out between the control and the rh-HGF administration groups.

The next test deals with human ApoA4 protein. Description: Western blot quantification of human ApoA4 protein in human hepatocyte culture supernatant. The settings on record: human primary culture hepatocytes, culture supernatant, rh-HGF 100, 300 or 1000 ng/mL, 24 hours; FIG. 6. It is filed as cell-based. How it is done:
as §1
Using hepatocyte culture supernatant (the same culture supernatant as that of cells for preparation of mRNA) 24 Hours after addition of rh-HGF, ApoA4 protein was quantified by Western blot method. […] After washing three times with the above wash solution, chemiluminescence solution SuperSignal West Dura Extended Duration Substrate (Thermo Scientific) was added to allow luminescence, and ApoA4 protein was detected with LAS-4000 (FUJIFILM).
With the quantification results of ApoA4 protein, Dunnett's multiple comparison test was carried out between the control and the rh-HGF administration groups.
(In general: In western blotting, separated proteins are transferred to a membrane and probed.)

“rh-HGF: human HGF recombinantly expressed in CHO cells, activated with hepatocyte growth factor activator recombinantly expressed in CHO cells”: in the test with Jo2 liver failure model, the “Effect on elevation of ALT” value is recorded as “strongly inhibited”, the “Effect on elevation of AST” value is given as “strongly inhibited” and the “Effect on extension of PT (Prothrombin time)” value is on record as “strongly inhibited”. Also, the “Human ApoA4 mRNA expression” value in the test on human ApoA4 mRNA is listed as “strongly enhanced”. Moreover, in the test with human ApoA4 protein, the “Extracellular release of human ApoA4 protein” value is “strongly enhanced”.
